In patent US20250368961A1, “Medium for producing a bile canaliculus and method for producing a bile canaliculus using the same” (INSTITUTE OF SCIENCE TOKYO, priority 2024, published 2025):

Tests used:
[1] = tested on: hepatocytes; test: Effectiveness of different K-Ras activating agents in bile canaliculi formation; assay type: cell-based, human; conditions: normal culture, Day 4; agent added to medium of the instant invention without OsM
Description: (§1) The frozen stock of human primary-cultured hepatocytes (PHHs) was thawed using commercially available thawing medium, and cell number was counted using trypan blue. To a 96-well plate coated with collagen I, PHHs were plated at 1.0×10^5 cells/well seeding density, using the medium of the instant invention, commercial medium A, commercial medium B, and commercial medium C such that the medium volume was 75 μL/well, and cultured at 37° C. under 5% CO2 condition. Four hours, 1 day, 2 days, and 4 days after seeding, the total amount of medium was replaced using each medium such that the medium volume was 75 μL/well, and the plate was cultured until Day 7 of culture.
Two types of media were used as controls: the medium of the instant invention without OsM (a negative control), and the medium of the instant invention (a positive control), and four more types of media were prepared based on the negative control to which a K-Ras activating agent other than OsM (IL-6, LIF, CNTF or Ras-GRF) was added (six types of media in total). Each medium was used for carrying out normal culture, and on culture Day 4 the medium was removed and 4 μmol/L CDFDA solution was added at 100 μL/well. The culture was incubated in a CO2 incubator (5% CO2, 37° C.) for 10 minutes, and observed using fluorescence microscopy.

[2] = tested on: hepatocytes; test: Effect of each medium component on bile canaliculi formation (component removal); assay type: cell-based, human; conditions: normal culture, Day 4; named component removed from the medium of the instant invention
Description: as §1
Eight types of media in total: the medium of the instant invention, and media prepared by removing the main six components (HGF, OsM, DEX, Frk, DMSO, S-220) from the medium of the instant invention (in some case, 2 components were removed), were prepared, and each was used for performing normal culture. Phase contrast microscopy was performed on Day 4 of culture. […] Thereafter, the culture was washed three times with HBSS (+), the medium for each condition was added at 75 μL/well, then the culture was incubated in CO2 incubator (5% CO2, 37° C.) for 10 minutes and observed by fluorescence microscopy.

Row | Substance | level of accumulation of CDFDA relative to OsM (positive control) [1] | accumulation of CDFDA in bile canaliculi (fluorescence microscopy image) [2] | boundaries between cells (phase contrast microscope image) [2]
1 | IL-6: IL-6 family cytokine, K-Ras activating agent other than OsM | comparable level of accumulation of CDFDA |  | 
2 | oncostatin M [OsM] |  | almost no accumulation of CDFDA in the bile canaliculi | boundaries between cells could hardly be observed
